Source: patent publication US9120946B2, “Active energy ray curing type composition, container that accommodates composition, inkjet discharging device having container, and cured matter” (RICOH COMPANY, LTD., priority 2013, dated 2015)

What was measured:
[1] = tested on: female mice; assay: skin sensitization test based on the LLNA (Local Lymph Node Assay), SI value by BrdU intake; type: in vivo; conditions: test substance 50.0 W/v % in acetone/olive oil 4:1, 25 μL to both auricles once a day for 3 days, SI less than 3 = negative
Method: The individuals remaining after the categorization were excluded from the test.
The test substance was weighed in a measuring flask, and the volume of the test substance was adjusted to 1 mL with the medium. The thus-prepared test substance preparation was placed in a light-shielded airtight container (made of glass).
This treatment was performed once a day for three consecutive days.
The surrounding tissue of each auricular lymph node was removed, and the auricular lymph nodes from both the auricles were collectively weighed.
After returning the auricular lymph nodes to room temperature, the auricular lymph nodes were mashed with the gradual addition of physiological saline, and suspended therein. The thus-obtained suspension was filtrated and thereafter dispensed into the wells of a 96-well microplate, with 3 wells being used per individual. The thus-dispensed suspensions were measured for intake of BrdU by the ELISA method. […] A multiplate reader (FLUOSTAR OPTIMA, product of BMG LABTECH Inc.) was used to measure the absorbance of each well (OD: 370 nm to 492 nm, the intake of BrdU), and the average of the absorbance of the 3 wells for each individual was used as the measurement of BrdU for the individual.

[2] = evaluation in Material Safety Data Sheet; cited from earlier work

Compound | SI values in LLNA test [1] | skin sensitization in MSDS [2]
C=C(C)C(=O)OCCOCCOC(=O)C(=C)C [a1, diethyleneglycol dimethacrylate] | 1.1 | 
caprolactone-modified dipentaerythritol hexaacrylate [a2] |  | Negative in MSDS
polypropylene glycol diacrylate [a5] | 1.5 | 
